Active and inactive are the calls of the source. The calls are words filed in the database; no cut-off is given here.
Assays:
[1] = Inhibition of tubulin assembly by Woods method
K562 [2] = assay: Cell cycle arrest in human K562 cells assessed as accumulation at G0/G1 phase at 20 nM after 24 hrs by propidium iodide staining-based flow cytometry; format: functional
[3] = Displacement of [3H]colchicine from tubulin assessed as bound colchicine at […] incubated in dark for 2 hrs by scintillation spectroscopy
K562 [4] = assay: Cell cycle arrest in human K562 cells assessed as accumulation at S phase at 20 nM after 24 hrs by propidium iodide staining-based flow cytometry; format: functional
K562 [5] = assay: Cell cycle arrest in human K562 cells assessed as accumulation at G2/M phase at 20 nM after 24 hrs by propidium iodide staining-based flow cytometry; format: functional
Vero = assay: Binding affinity to tubulin in african green monkey Vero cells assessed as aberration of microtubule arrangement at 10 uM after 40 mins by immunohistochemistry; format: cell-based; details: Chlorocebus sabaeus
K562 [6] = assay: Antiproliferative activity against human K562 cells after 5 days by MTT assay; format: functional, cell-based
HUVEC = assay: Antivascular activity in HUVEC cells assessed as change in cell shape at 1 uM after 1 hr by fluorescent-labeled high molecular weight F-dextran permeability assay; format: functional, cell-based; details: Homo sapiens
[7] = Inhibition of tubulin polymerization assessed as appearance of twisted and shorter tubulin by electron microscopy
[8] = Inhibition of tubulin polymerization assessed as appearance of shorter and ring shaped tubulin by electron microscopy

| Compound | IC50 [1] [nM] | Activity (K562 [2]) [%] | Activity [3] [%] | Activity (K562 [4]) [%] | Activity (K562 [5]) [%] | Activity (Vero) | IC50 (K562 [6]; Homo sapiens, K562, 120 h) [nM] | Activity (HUVEC) | Activity [7] | Activity [8] | IC50 (K562 [6]; k562) [nM] |
| --- | --- | --- | --- | --- | --- | --- | --- | --- | --- | --- | --- |
| COc1cc(C(=O)/C=C/c2ccc3c(c2)OCCO3)cc(OC)c1OC | 13000 | 27 | 10 | 23 | 50 | Active | – | – | – | – | – |
| CO/C(=C\c1ccc(OC)c(F)c1)C(=O)c1cc(OC)c(OC)c(OC)c1 | 470 | 41 | 8 | 13 | 46 | – | 3.7 | Active | – | – | – |
| COc1cc(C(=O)/C(C)=C/c2cc(F)c(OC)c(F)c2)cc(OC)c1OC | 2400 | 4 | 25 | 24 | 72 | – | 50 | – | – | – | – |
| COc1ccc(/C=C/C(=O)c2cc(OC)c(OC)c(OC)c2)cc1O | 620 | 12 | 9 | 12 | 76 | – | – | Active | Active | – | – |
| COc1cc(OC)c(C(=O)/C=C/c2ccc(OC)c(OC)c2OC)c(OC)c1 | 15000 | 10 | 27 | 16 | 74 | – | 300 | – | – | – | – |
| COc1ccc(/C=C(\C)C(=O)c2cc(OC)c(OC)c(OC)c2)cc1O | 460 | 10 | 8 | 7 | 83 | Active | – | Active | – | Active | – |
| COc1ccc(C(=O)/C=C/c2ccc(OC)c(OP(=O)(O)O)c2)cc1 | – | – | 83 | – | – | – | – | Active | – | – | – |
| COc1ccc(/C=C\c2cc(OC)c(OC)c(OC)c2)cc1O [COMBRETASTATIN A4] | 100 | 2 | 8 | 8 | 90 | – | – | – | – | – | – |
| COc1ccc(/C=C\c2cc(OC)c(OC)c(OC)c2)cc1OP(=O)(O)O | – | – | – | – | – | – | – | Active | – | – | – |
| CN(Cc1cnc2nc(N)nc(N)c2n1)c1ccc(C(=O)N[C@@H](CCC(=O)O)C(=O)O)cc1 | – | – | – | – | – | – | – | inactive | – | – | – |
| COc1cc(OC)c(/C=C/C(=O)c2cc(OC)c(OC)c(OC)c2)c(OC)c1 | 12000 | 10 | 46 | 18 | 72 | Active | 200 | – | – | – | – |
| COc1ccc(C(=O)/C(C)=C/c2ccc(OC)c(OP(=O)(O)O)c2)cc1 | – | – | 12 | – | – | – | – | Active | – | – | – |
| COc1ccc(/C=C/C(=O)c2cc(OC)c(OC)c(OC)c2)cc1N | 2000 | 48 | – | 33 | 19 | – | 10 | – | – | – | – |
| COc1ccc(C(=O)/C=C/c2ccc(OC)c(OP(=O)([O-])[O-])c2)cc1.[Na+].[Na+] | 39000 | 22 | – | 14 | 64 | – | – | – | – | – | 8 |
| COc1ccc(OC)c(C(=O)/C(C)=C/c2ccc(N(C)C)cc2)c1 | 10000 | 10 | 2 | 8 | 82 | Active | 12 | – | – | – | – |
| CO/C(=C\c1ccc(OC)c(O)c1)C(=O)c1cc(OC)c(OC)c(OC)c1 | 510 | 4 | 5 | 12 | 84 | Active | 1.5 | Active | – | – | – |
| CO/C(=C\c1cc(F)c(OC)c(F)c1)C(=O)c1cc(OC)c(OC)c(OC)c1 | 1700 | 30 | 41 | 15 | 55 | – | 360 | Active | – | – | – |
| COc1ccc(CC(C)C(=O)c2cc(OC)c(OC)c(OC)c2)cc1O (stereo not given) | 4000 | 36 | – | 36 | 28 | – | 30 | – | – | – | – |
| COc1ccc(C(=O)/C(C)=C/c2ccc(OC)c(OP(=O)([O-])[O-])c2)cc1.[Na+].[Na+] | 3100 | 21 | – | 10 | 69 | – | – | – | – | – | 0.12 |
| COc1ccc(/C=C/C(=O)c2ccc(OC)c(OC)c2)c(OC)c1 | 18000 | 26 | 42 | 27 | 47 | Active | 300 | – | – | – | – |
| COc1cc(C(=O)/C=C/c2cc(F)c(OC)c(F)c2)cc(OC)c1OC | 12000 | 20 | – | 19 | 61 | – | 6200 | – | – | – | – |
| COc1ccc(/C=C/C(=O)c2cc(OC)c(OC)c(OC)c2)cc1OC | > 25000 | 31 | 62 | 25 | 44 | – | 300 | – | – | – | – |
| COc1ccc(/C=C(\C)C(=O)c2cc(OC)c(OC)c(OC)c2)cc1F | 650 | 3 | 6 | 9 | 88 | Active | 2 | – | – | – | – |
